Measured values from ChEMBL document CHEMBL1681651, “A broad spectrum anticancer nucleoside with selective toxicity against human colon cells in vitro” (2011).

How the values were obtained:
Assay type in all cases: functional
CAKI-1 = test: Growth inhibition of human Caki1 cells assessed as cell growth at 1 uM after 48 hrs by SRB assay; details: CAKI-1, 48 h, read-out: Activity
DU-145 [1] = test: Growth inhibition of human DU145 cells assessed as cell growth at 1 uM after 48 hrs by SRB assay; details: DU-145, 48 h, read-out: Activity
NCI-H23 = test: Growth inhibition of human NCI-H23 cells assessed as cell growth at 10 uM after 48 hrs by SRB assay; details: NCI-H23, 48 h, read-out: Activity
NCI-H522 = test: Growth inhibition of human NCI-H522 cells assessed as cell growth at 10 uM after 48 hrs by SRB assay; details: NCI-H522, 48 h, read-out: Activity
U-251 = test: Growth inhibition of human U251 cells after 48 hrs by […] growth inhibition assay; details: U-251, 48 h
OVCAR-3 = test: Growth inhibition of human OVCAR3 cells after 48 hrs by […] growth inhibition assay; details: OVCAR-3, 48 h
OVCAR-4 [2] = test: Growth inhibition of human OVCAR4 cells after 48 hrs by […] growth inhibition assay; details: OVCAR-4, 48 h
OVCAR-5 [3] = test: Growth inhibition of human OVCAR5 cells after 48 hrs by […] growth inhibition assay; details: OVCAR-5, 48 h
BT-549 [4] = test: Growth inhibition of human BT549 cells after 48 hrs by […] growth inhibition assay; details: BT-549, 48 h
DU-145 [5] = test: Growth inhibition of human DU145 cells after 48 hrs by […] growth inhibition assay; details: DU-145, 48 h
CCRF-CEM [6] = test: Growth inhibition of human CCRF-CEM cells assessed as cell growth at 0.1 uM after 48 hrs by SRB assay; details: read-out: Activity
NCI-H322M = test: Growth inhibition of human NCI-H322M cells assessed as cell growth at 0.1 uM after 48 hrs by SRB assay; details: read-out: Activity
HT-29 = test: Growth inhibition of human HT-29 cells assessed as cell growth at 0.1 uM after 48 hrs by SRB assay; details: HT-29, 48 h, read-out: Activity
NCI/ADR-RES [7] = test: Growth inhibition of human NCI/ADR-RES cells assessed as cell growth at 0.1 uM after 48 hrs by SRB assay; details: read-out: Activity
OVCAR-5 [8] = test: Growth inhibition of human OVCAR5 cells assessed as cell growth at 10 uM after 48 hrs by SRB assay; details: OVCAR-5, 48 h, read-out: Activity
OVCAR-8 = test: Growth inhibition of human OVCAR8 cells assessed as cell growth at 10 uM after 48 hrs by SRB assay; details: OVCAR-8, 48 h, read-out: Activity
786-0 = test: Growth inhibition of human 786-0 cells assessed as cell growth at 10 uM after 48 hrs by SRB assay; details: 786-0, 48 h, read-out: Activity
A498 = test: Growth inhibition of human A498 cells assessed as cell growth at 10 uM after 48 hrs by SRB assay; details: A498, 48 h, read-out: Activity
PC-3 = test: Growth inhibition of human PC3 cells assessed as cell growth at 10 uM after 48 hrs by SRB assay; details: PC-3, 48 h, read-out: Activity
OVCAR-4 [9] = test: Growth inhibition of human OVCAR4 cells assessed as cell growth at 100 uM after 48 hrs by SRB assay; details: OVCAR-4, 48 h, read-out: Activity
SK-OV-3 [10] = test: Growth inhibition of human SKOV3 cells assessed as cell growth at 100 uM after 48 hrs by SRB assay; details: SK-OV-3, 48 h, read-out: Activity
BT-549 [11] = test: Growth inhibition of human BT549 cells assessed as cell growth at 100 uM after 48 hrs by SRB assay; details: BT-549, 48 h, read-out: Activity
CCRF-CEM [12] = test: Growth inhibition of human CCRF-CEM cells assessed as cell growth at 1 mM after 48 hrs by SRB assay; details: read-out: Activity
HOP-92 = test: Growth inhibition of human HOP92 cells assessed as cell growth at 1 mM after 48 hrs by SRB assay; details: HOP-92, 48 h, read-out: Activity
NCI-H460 = test: Growth inhibition of human NCI-H460 cells assessed as cell growth at 1 mM after 48 hrs by SRB assay; details: NCI-H460, 48 h, read-out: Activity
HCT-15 = test: Growth inhibition of human HCT15 cells assessed as cell growth at 1 mM after 48 hrs by SRB assay; details: HCT-15, 48 h, read-out: Activity
M14 = test: Growth inhibition of human M14 cells assessed as cell growth at 1 mM after 48 hrs by SRB assay; details: M14, 48 h, read-out: Activity
SK-OV-3 [13] = test: Growth inhibition of human SKOV3 cells assessed as cell growth at 1 mM after 48 hrs by SRB assay; details: SK-OV-3, 48 h, read-out: Activity
BT-549 [14] = test: Growth inhibition of human BT549 cells assessed as cell growth at 1 mM after 48 hrs by SRB assay; details: BT-549, 48 h, read-out: Activity
NCI/ADR-RES [15] = test: Growth inhibition of human NCI/ADR-RES cells after 48 hrs by SRB assay
COLO 205 = test: Growth inhibition of human COLO205 cells assessed as cell growth at 1 uM after 48 hrs by SRB assay; details: COLO 205, 48 h, read-out: Activity
SK-MEL-5 = test: Growth inhibition of human SK-MEL-5 cells assessed as cell growth at 1 uM after 48 hrs by SRB assay; details: SK-MEL-5, 48 h, read-out: Activity
[16] = read-out: LC50 (the source's name)
[17] = read-out: pLC50 (the source's name) (converted)

`CCOC(=O)C[C@H]1[C@@H](O[Si](C)(C)C(C)(C)C)[C@H](n2cnc3c(NC(=O)Nc4ccccc4)ncnc32)O[C@@H]1CNC(=O)NC` gave a growth at 1 µM (CAKI-1) of 95%, a growth at 1 µM (DU-145 [1]) of 123% and a growth at 10 µM (NCI-H23) of 100%. The growth at 10 µM (NCI-H522) was 83%, the GI50 (U-251; read-out: GI50) was 4.69 µM and the CC50 (U-251; [16]) was 76 µM. For the same compound, the TGI (U-251; read-out: TGI) was 20.9 µM, the GI50 (U-251; read-out: pGI50 (converted)) was 4.68 µM and the CC50 (U-251; [17]) was 75.9 µM. It also gave a TGI (U-251; read-out: pTGI (converted)) of 20.9 µM, a GI50 (OVCAR-3; read-out: GI50) of 4.59 µM and a CC50 (OVCAR-3; [16]) of 91.3 µM. For the same compound, the TGI (OVCAR-3; read-out: TGI) was 17.2 µM, the GI50 (OVCAR-3; read-out: pGI50 (converted)) was 4.57 µM and the CC50 (OVCAR-3; [17]) was 91.2 µM. The TGI (OVCAR-3; read-out: pTGI (converted)) was 17 µM, the GI50 (OVCAR-4 [2]; read-out: GI50) was 12.3 µM and the CC50 (OVCAR-4 [2]; [16]) was > 100 µM. For the same compound, the TGI (OVCAR-4 [2]; read-out: TGI) was > 100 µM, the GI50 (OVCAR-4 [2]; read-out: pGI50 (converted)) was 12.3 µM and the CC50 (OVCAR-4 [2]; [17]) was > 100 µM. For the same compound, the TGI (OVCAR-4 [2]; read-out: pTGI) was > 100 µM, the GI50 (OVCAR-5 [3]; read-out: GI50) was 31.1 µM and the CC50 (OVCAR-5 [3]; [16]) was > 100 µM. The TGI (OVCAR-5 [3]; read-out: TGI) was > 100 µM, the GI50 (OVCAR-5 [3]; read-out: pGI50 (converted)) was 30.9 µM and the CC50 (OVCAR-5 [3]; [17]) was > 100 µM. For the same compound, the TGI (OVCAR-5 [3]; read-out: pTGI (converted)) was > 100 µM, the GI50 (BT-549 [4]; read-out: GI50) was > 100 µM and the CC50 (BT-549 [4]; [16]) was > 100 µM. For the same compound, the TGI (BT-549 [4]; read-out: TGI) was > 100 µM, the GI50 (BT-549 [4]; read-out: pGI50 (converted)) was > 100 µM and the CC50 (BT-549 [4]; [17]) was > 100 µM. For the same compound, the TGI (BT-549 [4]; read-out: pTGI (converted)) was > 100 µM, the CC50 (DU-145 [5]; [16]) was 12.5 µM and the GI50 (DU-145 [5]; read-out: pGI50 (converted)) was 5.01 µM. For the same compound, the CC50 (DU-145 [5]; [17]) was 77.6 µM, the TGI (DU-145 [5]; read-out: pTGI (converted)) was 19.5 µM and the growth at 0.1 µM (CCRF-CEM [6]) was 96%. The growth at 0.1 µM (NCI-H322M) was 105%, the growth at 0.1 µM (HT-29) was 104% and the growth at 0.1 µM (NCI/ADR-RES [7]) was 105%. It also gave a growth at 10 µM (OVCAR-5 [8]) of 95%, a growth at 10 µM (OVCAR-8) of 98% and a growth at 10 µM (786-0) of 86%. For the same compound, the growth at 10 µM (A498) was 91%, the growth at 10 µM (PC-3) was 103% and the growth at 100 µM (OVCAR-4 [9]) was 53%. It also gave a growth at 100 µM (SK-OV-3 [10]) of 66%, a growth at 100 µM (BT-549 [11]) of 67% and a growth at 1000 µM (CCRF-CEM [12]) of -2%. It also gave a growth at 1000 µM (HOP-92) of -61%, a growth at 1000 µM (NCI-H460) of -49% and a growth at 1000 µM (HCT-15) of 43%. The growth at 1000 µM (M14) was -56%, the growth at 1000 µM (SK-OV-3 [13]) was 16% and the growth at 1000 µM (BT-549 [14]) was 51%. For the same compound, the GI50 (NCI/ADR-RES [15]; read-out: GI50) was > 100 µM, the CC50 (NCI/ADR-RES [15]; [16]) was > 100 µM and the TGI (NCI/ADR-RES [15]; read-out: TGI) was > 100 µM. For the same compound, the GI50 (NCI/ADR-RES [15]; read-out: pGI50 (converted)) was > 100 µM, the CC50 (NCI/ADR-RES [15]; [17]) was > 100 µM and the TGI (NCI/ADR-RES [15]; read-out: pTGI (converted)) was > 100 µM. The growth at 1 µM (COLO 205) was 97% and the growth at 1 µM (SK-MEL-5) was 100%.
